From ChEMBL document CHEMBL1201862, “PubChem BioAssay data set” (2004) come the findings set out here.

Among the test systems are A498; NCI/ADR-RES; SF-268; OVCAR-3; HT-29; HCC 2998; CAKI-1; Hs-578T; MDA-MB-435; NCI-H460; SNB-75; K562; HOP-92; RXF 393; COLO 205; HL-60; SR; U-251; OVCAR-5.
What all share (experiment): NCI anticancer screen, dose series, 48 h

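1) Cells in 96-well plates. 2) Compound, 48 h, 5 concentrations. 3) Linear interpolation between surrounding doses. 4) Unreached endpoint = highest concentration. GI50 = concentration required for 50% inhibition of growth.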 Active and inactive are the calls of the source. Cut-off read from the data, not from the text of the source: active = GI50 up to about 1.1 µM and inactive = higher. Some results are limits rather than exact numbers.

Turning to `COc1ccc(OC)c(C2CCc3cnc4nc(N)nc(N)c4c3C2)c1` (configuration not stated), the GI50 in the experiment with A498 was > 100 µM (inactive); in the experiment with NCI/ADR-RES, > 100 µM (inactive); in the experiment with SF-268 it was > 100 µM (inactive); with OVCAR-3, > 100 µM (inactive); in the experiment with HT-29, 70.1 µM (inactive); in the experiment with HCC 2998 it was > 100 µM (inactive). Moreover, the GI50 was > 100 µM (inactive) with CAKI-1; > 100 µM (inactive) with Hs-578T; 87.1 µM (inactive) in the experiment with MDA-MB-435; 57.3 µM (inactive) with NCI-H460; 19.7 µM (inactive) in the experiment on SNB-75; 46.9 µM (inactive) in the experiment on K562. Also, the GI50 in the experiment with HOP-92 is > 100 µM (inactive); in the experiment on RXF 393, 33.6 µM (inactive); in the experiment with COLO 205, > 100 µM (inactive); in the experiment on HL-60, > 100 µM (inactive); in the experiment with SR, 56.9 µM (inactive); with U-251, 48.8 µM (inactive). For the same compound, the GI50 in the experiment on OVCAR-5 was > 100 µM (inactive).
For the compound `NC1=NCC(CN2CCCC2)O1` (configuration not stated), the GI50 with A498, in the experiment on NCI/ADR-RES, with SF-268, with OVCAR-3, in the experiment with HT-29 and in the experiment with HCC 2998 was > 100 µM (inactive) throughout. In addition, the GI50 in the experiment on CAKI-1, in the experiment with Hs-578T, in the experiment on MDA-MB-435, in the experiment with NCI-H460, in the experiment with SNB-75 and with K562 was > 100 µM (inactive) throughout. The GI50 in the experiment with HOP-92, with RXF 393, in the experiment on COLO 205, in the experiment on HL-60, in the experiment on SR and in the experiment on U-251 was > 100 µM (inactive) each time. Also, the GI50 in the experiment with OVCAR-5 is > 100 µM (inactive).
Consider `NS(=O)(=O)c1ccc(NC(=S)NC(=O)Nc2ccc(Cl)c(Cl)c2)cc1`, for which the GI50 in the experiment on A498 was 1.07 µM (active); in the experiment with NCI/ADR-RES it was 16 µM (inactive); in the experiment on SF-268, 12.8 µM (inactive); in the experiment on OVCAR-3 it was 18.5 µM (inactive); with HT-29, 11.5 µM (inactive); with HCC 2998 it was 14.6 µM (inactive). The GI50 in the experiment with CAKI-1 is 18.7 µM (inactive); in the experiment with Hs-578T, 25.1 µM (inactive); in the experiment with MDA-MB-435 it was 14.4 µM (inactive); with NCI-H460, 13 µM (inactive); with SNB-75, 13.7 µM (inactive); in the experiment with K562, 4.55 µM (inactive). In addition, the GI50 was 26.5 µM (inactive) with HOP-92; 15.3 µM (inactive) in the experiment on RXF 393; 14 µM (inactive) in the experiment on COLO 205; 10.5 µM (inactive) in the experiment on HL-60; < 0.01 µM (active) in the experiment on SR; 14.9 µM (inactive) in the experiment with U-251. Also, the GI50 in the experiment with OVCAR-5 is 12.8 µM (inactive).
For `CNC(=O)C(C)NC(=O)C(Cc1ccccc1)NC(=O)OC(C)(C)C` (configuration not stated), the GI50 with A498, in the experiment on NCI/ADR-RES, in the experiment with SF-268, in the experiment with OVCAR-3, with HT-29 and with HCC 2998 was > 100 µM (inactive) each time. Further, the GI50 in the experiment with CAKI-1, in the experiment on Hs-578T, with MDA-MB-435, in the experiment on NCI-H460, with SNB-75 and in the experiment on K562 was > 100 µM (inactive) throughout. Moreover, the GI50 in the experiment on HOP-92, with RXF 393, with COLO 205, in the experiment with HL-60, with SR and with U-251 was > 100 µM (inactive) in each case. In addition, in the experiment on OVCAR-5, the GI50 is > 100 µM (inactive).
For `COc1cc(C2c3cc4c(cc3OC(Nc3ccc(C(=O)O)cc3)C2C)OCO4)cc(OC)c1OC` (configuration not stated), the GI50 with A498 is 0.714 µM (active); with NCI/ADR-RES, 0.29 µM (active); in the experiment on SF-268 it was 0.504 µM (active); in the experiment on OVCAR-3 it was 0.285 µM (active); with HT-29, 0.329 µM (active); in the experiment with HCC 2998 it was 0.295 µM (active). The GI50 with CAKI-1 was 0.204 µM (active); in the experiment on Hs-578T, 1.39 µM (inactive); in the experiment with MDA-MB-435, 0.0317 µM (active); with NCI-H460, 0.326 µM (active); with SNB-75, 0.295 µM (active); with K562, 0.3 µM (active). Also, the GI50 in the experiment on HOP-92 is 4.13 µM (inactive); in the experiment with RXF 393, 0.115 µM (active); with COLO 205, 0.202 µM (active); in the experiment with HL-60, 0.186 µM (active); with SR it was 0.204 µM (active); in the experiment on U-251, 0.346 µM (active). Further, the GI50 in the experiment on OVCAR-5 was 0.841 µM (active).
For the compound `C=C(Cl)C(C)(Cl)CCC(Br)C(C)(C)Cl` (configuration not stated), the GI50 is 41.5 µM (inactive) in the experiment on A498; 29.4 µM (inactive) with NCI/ADR-RES; 33.2 µM (inactive) with SF-268; 18.2 µM (inactive) in the experiment on OVCAR-3; 15.8 µM (inactive) with HT-29; 19.5 µM (inactive) in the experiment on HCC 2998. For the same compound, the GI50 in the experiment with CAKI-1 is 25.4 µM (inactive); in the experiment with Hs-578T it was 21.2 µM (inactive); in the experiment with MDA-MB-435, 19.4 µM (inactive); in the experiment with NCI-H460 it was 26 µM (inactive); with SNB-75, 12.3 µM (inactive); in the experiment on K562, 33.9 µM (inactive). Moreover, the GI50 was 18.8 µM (inactive) in the experiment on HOP-92; 13.9 µM (inactive) with RXF 393; 17.3 µM (inactive) in the experiment on COLO 205; 37.1 µM (inactive) in the experiment with HL-60; 21.9 µM (inactive) in the experiment on SR; 15.9 µM (inactive) in the experiment on U-251. Further, the GI50 in the experiment on OVCAR-5 is 21.5 µM (inactive).
In the case of `OC1CSc2nc3ccccc3n2C1` (configuration not stated), the GI50 in the experiment on A498, with NCI/ADR-RES, with SF-268, with OVCAR-3, in the experiment with HT-29 and in the experiment on HCC 2998 was > 100 µM (inactive) throughout. Moreover, the GI50 was > 100 µM (inactive) in the experiment on CAKI-1; 23.8 µM (inactive) with Hs-578T; > 100 µM (inactive) in the experiment on MDA-MB-435; > 100 µM (inactive) with NCI-H460; 17.9 µM (inactive) in the experiment on SNB-75; > 100 µM (inactive) in the experiment on K562. The GI50 in the experiment on HOP-92, with RXF 393, in the experiment with COLO 205, in the experiment with HL-60, in the experiment on SR and with U-251 was > 100 µM (inactive) throughout. The GI50 with OVCAR-5 is > 100 µM (inactive).
On to `CC(C)NC(=O)OCc1c(COC(=O)NC(C)C)n(C)c2c1ccc1ccccc12`, for which the GI50 in the experiment with A498 was 1.57 µM (inactive); with NCI/ADR-RES it was 2.29 µM (inactive); in the experiment on SF-268, 1.9 µM (inactive); in the experiment with OVCAR-3 it was 2.97 µM (inactive); in the experiment with HT-29 it was 3.34 µM (inactive); in the experiment on HCC 2998 it was 2.88 µM (inactive). Besides, the GI50 was 0.542 µM (active) with CAKI-1; 0.971 µM (active) in the experiment with Hs-578T; 1.52 µM (inactive) with MDA-MB-435; 2.53 µM (inactive) in the experiment on NCI-H460; 1.83 µM (inactive) in the experiment with SNB-75; 0.171 µM (active) with K562. In addition, the GI50 was 1.16 µM (inactive) in the experiment with HOP-92; 1.25 µM (inactive) in the experiment with RXF 393; 1.84 µM (inactive) in the experiment with COLO 205; 2.86 µM (inactive) in the experiment with HL-60; 0.57 µM (active) with SR; 1.63 µM (inactive) in the experiment with U-251. Further, the GI50 in the experiment with OVCAR-5 was 2.97 µM (inactive).
